Experimental data reported in publication PMC6743422, “Preclinical disposition of MGS0274 besylate, a prodrug of a potent group II metabotropic glutamate receptor agonist MGS0008 for the treatment of schizophrenia” (Pharmacology Research & Perspectives, 2019).
Read-outs that look alike come from different tables or passages of the source. Marks after values point to notes of the source that are not given here.

Columns and labels:
CYP3A4 mRNA = assay type: in vitro ADME, human; details: three consecutive 24-hour treatments
Protocol: (§1) The primary cultured cryopreserved human hepatocytes were plated in a collagen‐coated 96‐well plate (Becton Dickinson, Franklin Lakes, NJ) with Williams’ Medium E (Invitrogen, Carlsbad, CA) containing Geltrex^TM (Invitrogen) and Maintenance Supplements (Invitrogen) and maintained in humidified air‐5% CO2 at 37°C for 3 days. Then, the cells were cultured for three consecutive 24‐hour treatments with MGS0008 (3‐30 µmol/L), with MGS0274 besylate (3‐30 µmol/L), or with positive controls (omeprazole for CYP1A2 at 50 µmol/L, phenobarbital for CYP2B6 at 1000 µmol/L, or rifampicin for CYP3A4 at 10 µmol/L). The mRNA expression levels of CYP1A2, 2B6, and 3A4 were measured using the real‐time polymerase chain reaction (RT‐PCR) method (7500 Fast RT‐PCR system; Applied Biosystems, Foster City, CA) with TaqMan® Fast Universal PCR Master Mix (probe ID: Hs00167927_m1 for CYP1A2, Hs04183483_g1 for CYP2B6, and Hs00604506_ml for CYP3A4; Applied Biosystems). The fold change in the mRNA expression was calculated using the 2^‐ΔΔCT method.22

CYP2D6 = target: T1, CYP2D6 (Homo sapiens, UniProt P10635); assay: CYP inhibition in human liver microsomes, CYP2D6; assay type: in vitro ADME; details: human liver microsomes 0.1 mg/mL; probe (±)-Bufuralol, metabolite 1'-Hydroxybufuralol
T1 construct: using probe substrates for each CYP isoform and human liver microsomes; from tissue; host or cells: human liver microsomes
T1 sequence (P10635 whole entry, canonical isoform): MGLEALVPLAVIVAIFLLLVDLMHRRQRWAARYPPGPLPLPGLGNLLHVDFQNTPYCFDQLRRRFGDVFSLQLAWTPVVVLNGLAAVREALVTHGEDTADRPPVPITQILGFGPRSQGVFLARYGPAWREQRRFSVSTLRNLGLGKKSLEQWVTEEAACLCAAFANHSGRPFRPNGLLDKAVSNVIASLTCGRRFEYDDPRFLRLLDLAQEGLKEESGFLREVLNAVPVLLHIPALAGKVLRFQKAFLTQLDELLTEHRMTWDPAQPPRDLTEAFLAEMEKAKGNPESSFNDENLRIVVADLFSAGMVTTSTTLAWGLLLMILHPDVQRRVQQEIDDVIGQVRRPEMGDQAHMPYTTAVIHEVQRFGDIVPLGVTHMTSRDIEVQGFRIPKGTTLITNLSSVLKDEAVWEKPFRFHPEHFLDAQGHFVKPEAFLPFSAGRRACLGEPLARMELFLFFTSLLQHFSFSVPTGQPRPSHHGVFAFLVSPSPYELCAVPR

CYP2C9 = target: T2, CYP2C9 (Homo sapiens, UniProt P11712); assay: CYP inhibition in human liver microsomes, CYP2C9; assay type: in vitro ADME; details: human liver microsomes 0.1 mg/mL; probe Diclofenac, metabolite 4'-Hydroxydiclofenac
T2 construct: using probe substrates for each CYP isoform and human liver microsomes; from tissue; host or cells: human liver microsomes
T2 sequence (P11712 whole entry, canonical isoform): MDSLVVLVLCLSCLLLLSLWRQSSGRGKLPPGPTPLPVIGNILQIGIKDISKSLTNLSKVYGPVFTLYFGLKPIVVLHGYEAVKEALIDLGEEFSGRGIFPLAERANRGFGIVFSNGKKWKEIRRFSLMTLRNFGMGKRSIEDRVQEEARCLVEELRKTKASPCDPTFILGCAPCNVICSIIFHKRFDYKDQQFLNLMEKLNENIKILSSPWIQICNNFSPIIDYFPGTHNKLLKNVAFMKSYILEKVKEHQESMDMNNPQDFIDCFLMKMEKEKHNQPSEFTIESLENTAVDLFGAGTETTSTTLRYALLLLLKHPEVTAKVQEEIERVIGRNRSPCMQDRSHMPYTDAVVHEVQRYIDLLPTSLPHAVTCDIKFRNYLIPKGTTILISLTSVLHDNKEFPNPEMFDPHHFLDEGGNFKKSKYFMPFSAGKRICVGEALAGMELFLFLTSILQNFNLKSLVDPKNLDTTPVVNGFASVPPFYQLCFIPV

CYP2B6 mRNA = assay: CYP induction in primary cultured cryopreserved human hepatocytes, CYP2B6 mRNA; details: three consecutive 24-hour treatments
Protocol: as §1

[1] = system: mRNA expression of CYP1A2, 2B6, and 3A4; assay: CYP induction in human hepatocytes, CYP1A2, 2B6 and 3A4 together; assay type: in vitro ADME; details: 3-30 µmol/L; three lots of human hepatocytes
Protocol: as §1

CYP2C19 = target: T3, CYP2C19 (Homo sapiens, UniProt P33261); assay: CYP inhibition in human liver microsomes, CYP2C19; assay type: in vitro ADME; details: human liver microsomes 0.1 mg/mL; probe (S)-Mephenytoin, metabolite 4'-Hydroxymephenytoin
T3 construct: using probe substrates for each CYP isoform and human liver microsomes; from tissue; host or cells: human liver microsomes
T3 sequence (P33261 whole entry, canonical isoform): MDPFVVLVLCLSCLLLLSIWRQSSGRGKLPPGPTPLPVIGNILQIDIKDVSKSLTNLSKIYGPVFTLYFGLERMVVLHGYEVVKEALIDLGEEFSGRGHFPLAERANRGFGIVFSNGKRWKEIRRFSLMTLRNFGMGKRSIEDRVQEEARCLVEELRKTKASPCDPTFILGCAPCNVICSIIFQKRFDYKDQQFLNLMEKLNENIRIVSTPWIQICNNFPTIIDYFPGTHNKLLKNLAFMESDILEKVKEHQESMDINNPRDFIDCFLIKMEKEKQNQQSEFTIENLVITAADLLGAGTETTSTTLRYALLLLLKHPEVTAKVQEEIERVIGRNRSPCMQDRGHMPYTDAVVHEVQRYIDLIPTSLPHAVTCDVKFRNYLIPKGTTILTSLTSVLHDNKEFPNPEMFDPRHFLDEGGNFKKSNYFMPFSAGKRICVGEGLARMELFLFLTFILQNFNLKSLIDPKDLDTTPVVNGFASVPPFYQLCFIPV

CYP1A2 = target: T4, CYP1A2 (Homo sapiens, UniProt P05177); assay: CYP inhibition in human liver microsomes, CYP1A2; assay type: in vitro ADME; details: human liver microsomes 0.1 mg/mL; probe Phenacetin, metabolite Acetaminophen
T4 construct: using probe substrates for each CYP isoform and human liver microsomes; from tissue; host or cells: human liver microsomes
T4 sequence (P05177 whole entry, canonical isoform): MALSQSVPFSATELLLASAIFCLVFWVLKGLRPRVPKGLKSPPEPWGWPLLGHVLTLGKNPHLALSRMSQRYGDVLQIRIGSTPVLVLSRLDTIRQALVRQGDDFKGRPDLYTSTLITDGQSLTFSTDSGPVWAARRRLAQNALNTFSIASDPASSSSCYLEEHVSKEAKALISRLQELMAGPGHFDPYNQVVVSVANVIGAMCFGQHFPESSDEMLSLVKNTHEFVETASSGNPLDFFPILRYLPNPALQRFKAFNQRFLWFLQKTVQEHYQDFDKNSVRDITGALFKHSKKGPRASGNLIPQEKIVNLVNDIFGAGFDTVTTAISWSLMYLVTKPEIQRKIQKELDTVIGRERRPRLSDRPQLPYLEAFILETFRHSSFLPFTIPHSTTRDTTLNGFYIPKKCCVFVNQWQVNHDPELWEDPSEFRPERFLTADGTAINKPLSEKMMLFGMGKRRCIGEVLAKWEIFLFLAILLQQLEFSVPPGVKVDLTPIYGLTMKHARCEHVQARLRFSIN
Protocol: The inhibition potential of MGS0008 (0.3‐100 µmol/L) and MGS0274 besylate (0.03‐10 µmol/L) on the activity of human cytochrome P450 (CYP) isoforms (CYP1A2, 2B6, 2C8, 2C9, 2C19, 2D6, and 3A) was investigated using probe substrates for each CYP isoform and human liver microsomes, of which the final protein concentration was set at 0.1 mg/mL (see Table S2). The assay was started by spiking the reaction mixture, which had been pre‐incubated at 37°C for 5 minutes, with NADP^+. After incubation for 5 to 10 minutes, the reaction was terminated by adding acetonitrile containing an internal standard for each probe substrate, and the resultant mixture was centrifuged. Aliquots of the supernatant were subjected to bioanalysis using LC‐MS/MS (see Table S1‐D).
The final protein concentration in the reaction mixture was set at 0.1 mg/mL. The values in parentheses represent the final concentrations of compounds added in each reaction mixture. […]

CYP2B6 = target: T5, CYP2B6 (Homo sapiens, UniProt P20813); assay: CYP inhibition in human liver microsomes, CYP2B6; assay type: in vitro ADME; details: human liver microsomes 0.1 mg/mL; probe Bupropion, metabolite Hydroxybupropion
T5 construct: using probe substrates for each CYP isoform and human liver microsomes; from tissue; host or cells: human liver microsomes
T5 sequence (P20813 whole entry, canonical isoform): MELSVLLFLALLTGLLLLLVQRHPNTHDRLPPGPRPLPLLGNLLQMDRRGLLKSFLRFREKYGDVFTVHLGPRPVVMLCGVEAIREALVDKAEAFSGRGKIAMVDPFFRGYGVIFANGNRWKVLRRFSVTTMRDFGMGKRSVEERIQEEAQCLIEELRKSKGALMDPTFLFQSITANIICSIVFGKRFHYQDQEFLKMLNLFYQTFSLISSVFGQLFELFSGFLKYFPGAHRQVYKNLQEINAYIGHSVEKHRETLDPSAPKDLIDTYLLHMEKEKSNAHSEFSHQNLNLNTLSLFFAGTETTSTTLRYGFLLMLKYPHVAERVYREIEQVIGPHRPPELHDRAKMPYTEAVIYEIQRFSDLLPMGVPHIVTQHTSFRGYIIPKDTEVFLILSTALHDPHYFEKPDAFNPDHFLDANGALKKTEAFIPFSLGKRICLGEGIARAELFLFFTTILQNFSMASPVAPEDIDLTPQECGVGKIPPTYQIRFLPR

[2] = system: human cytochrome P450 (CYP) isoforms (CYP1A2, 2B6, 2C8, 2C9, 2C19, 2D6, and 3A); assay: CYP inhibition in human liver microsomes, all 7 isoforms together; assay type: in vitro ADME; details: MGS0008 0.3-100 µmol/L, MGS0274 besylate 0.03-10 µmol/L
[3] = system: CYP1A2, 2B6, 2C8, 2C9, 2C19, 2D6 and 3A; assay: as above; assay type: in vitro ADME; details: human, all the CYP isoforms tested, read-out: percent inhibition
[4] = system: cultured human hepatocytes; assay: Toxicity to the cultured human hepatocytes; assay type: cell-based; details: at the concentrations tested (3-30 μM)
CYP1A2 mRNA = assay: CYP induction in primary cultured cryopreserved human hepatocytes, CYP1A2 mRNA; assay type: in vitro ADME; details: three consecutive 24-hour treatments
Protocol: as §1

CYP2C8 = target: T6, CYP2C8 (Homo sapiens, UniProt P10632); assay: CYP inhibition in human liver microsomes, CYP2C8; assay type: in vitro ADME; details: human liver microsomes 0.1 mg/mL; probe Amodiaquine, metabolite N-desethylamodiaquine
T6 construct: using probe substrates for each CYP isoform and human liver microsomes; from tissue; host or cells: human liver microsomes
T6 sequence (P10632 whole entry, canonical isoform): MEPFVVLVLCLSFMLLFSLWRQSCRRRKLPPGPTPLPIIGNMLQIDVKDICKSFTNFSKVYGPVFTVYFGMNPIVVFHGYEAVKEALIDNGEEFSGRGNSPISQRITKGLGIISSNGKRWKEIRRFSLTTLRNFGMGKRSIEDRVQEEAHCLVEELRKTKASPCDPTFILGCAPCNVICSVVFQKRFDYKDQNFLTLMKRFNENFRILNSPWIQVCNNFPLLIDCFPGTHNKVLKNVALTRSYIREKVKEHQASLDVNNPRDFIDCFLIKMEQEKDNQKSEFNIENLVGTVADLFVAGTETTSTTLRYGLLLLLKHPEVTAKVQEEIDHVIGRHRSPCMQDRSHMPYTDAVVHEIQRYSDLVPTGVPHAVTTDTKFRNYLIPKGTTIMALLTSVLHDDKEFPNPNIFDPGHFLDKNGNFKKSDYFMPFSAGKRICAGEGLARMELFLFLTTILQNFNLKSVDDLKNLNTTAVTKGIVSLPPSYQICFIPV

| Compound | Fold change of mRNA expression level CYP3A4 (CYP3A4 mRNA; hepatocyte lot Hu1487, 3 μM) | Fold change of mRNA expression level CYP3A4 (CYP3A4 mRNA; hepatocyte lot Hu1487, 10 μM) | Fold change of mRNA expression level CYP3A4 (CYP3A4 mRNA; hepatocyte lot Hu1487, 30 μM) | Fold change of mRNA expression level CYP3A4 (CYP3A4 mRNA; hepatocyte lot Hu8114, 3 μM) | Fold change of mRNA expression level CYP3A4 (CYP3A4 mRNA; hepatocyte lot Hu8114, 10 μM) | Fold change of mRNA expression level CYP3A4 (CYP3A4 mRNA; hepatocyte lot Hu8114, 30 μM) | Fold change of mRNA expression level CYP3A4 (CYP3A4 mRNA; hepatocyte lot Hu8123, 3 μM) | Fold change of mRNA expression level CYP3A4 (CYP3A4 mRNA; hepatocyte lot Hu8123, 10 μM) | Fold change of mRNA expression level CYP3A4 (CYP3A4 mRNA; hepatocyte lot Hu8123, 30 μM) | IC50 (CYP2D6) | IC50 (CYP2C9) | Fold change of mRNA expression level CYP2B6 (CYP2B6 mRNA; hepatocyte lot Hu1487, 3 μM) | Fold change of mRNA expression level CYP2B6 (CYP2B6 mRNA; hepatocyte lot Hu1487, 10 μM) | Fold change of mRNA expression level CYP2B6 (CYP2B6 mRNA; hepatocyte lot Hu1487, 30 μM) | Fold change of mRNA expression level CYP2B6 (CYP2B6 mRNA; hepatocyte lot Hu8114, 3 μM) | Fold change of mRNA expression level CYP2B6 (CYP2B6 mRNA; hepatocyte lot Hu8114, 10 μM) | Fold change of mRNA expression level CYP2B6 (CYP2B6 mRNA; hepatocyte lot Hu8114, 30 μM) | Fold change of mRNA expression level CYP2B6 (CYP2B6 mRNA; hepatocyte lot Hu8123, 3 μM) | Fold change of mRNA expression level CYP2B6 (CYP2B6 mRNA; hepatocyte lot Hu8123, 10 μM) | Fold change of mRNA expression level CYP2B6 (CYP2B6 mRNA; hepatocyte lot Hu8123, 30 μM) | also measured |
| --- | --- | --- | --- | --- | --- | --- | --- | --- | --- | --- | --- | --- | --- | --- | --- | --- | --- | --- | --- | --- | --- |
| N[C@]1(C(=O)O)[C@H]2[C@@H](C[C@@H]1F)[C@@H]2C(=O)O [MGS0008, (1S,2S,3S,5R,6S)‐2‐amino‐3‐fluorobicyclo[3.1.0]hexane‐2,6‐dicarboxylic acid] | 1.3 fold | 1.3 fold | 1.7 fold | 1.4 fold | 1.4 fold | 1.9 fold | 1.0 fold | 0.7 fold | 0.9 fold | > 100 µM | > 100 µM | 0.9 fold | 0.7 fold | 0.9 fold | 0.8 fold | 0.8 fold | 1.0 fold | 1.2 fold | 1.2^b fold | 1.3 fold | induction potential on the CYP mRNA tested [1]: no apparent induction potential; IC50 (CYP2C19): > 100 µM; IC50 (CYP1A2): > 100 µM; IC50 (CYP2B6): > 100 µM; inhibitory potential on the CYP isoforms [2]: no inhibitory potential; inhibition at 100 µM ([3]; at 100 μM): < 50%; toxicity to the cultured human hepatocytes [4]: did not show detectable toxicity; Fold change of mRNA expression level CYP1A2 (CYP1A2 mRNA; hepatocyte lot Hu1487, 3 μM): 0.8 fold; Fold change of mRNA expression level CYP1A2 (CYP1A2 mRNA; hepatocyte lot Hu1487, 10 μM): 0.7 fold; Fold change of mRNA expression level CYP1A2 (CYP1A2 mRNA; hepatocyte lot Hu1487, 30 μM): 1.0 fold; Fold change of mRNA expression level CYP1A2 (CYP1A2 mRNA; hepatocyte lot Hu8114, 3 μM): 1.1 fold; Fold change of mRNA expression level CYP1A2 (CYP1A2 mRNA; hepatocyte lot Hu8114, 10 μM): 1.0 fold; Fold change of mRNA expression level CYP1A2 (CYP1A2 mRNA; hepatocyte lot Hu8114, 30 μM): 1.1 fold; Fold change of mRNA expression level CYP1A2 (CYP1A2 mRNA; hepatocyte lot Hu8123, 3 μM): 0.9 fold; Fold change of mRNA expression level CYP1A2 (CYP1A2 mRNA; hepatocyte lot Hu8123, 10 μM): 1.1^b fold; Fold change of mRNA expression level CYP1A2 (CYP1A2 mRNA; hepatocyte lot Hu8123, 30 μM): 0.9 fold; IC50 (CYP2C8): > 100 µM |
| CC(C)[C@@H]1CC[C@@H](C)C[C@H]1OC(=O)O[C@@H](C)OC(=O)[C@H]1[C@@H]2C[C@H](F)[C@@](N)(C(=O)O)[C@@H]21.O=S(=O)(O)c1ccccc1 [MGS0274 besylate, (1S,2S,3S,5R,6S)‐2‐amino‐3‐fluoro‐6‐({(1S)‐1‐[({[(1R,2S,5R)‐5‐methyl‐2‐(propan‐2‐yl)cyclohexyl]oxy}carbonyl)oxy]ethoxy}carbonyl)bicyclo[3.1.0]hexane‐2‐carboxylic acid monobenzenesulfonate] | 1.4 fold | 1.5 fold | 1.8 fold | 1.1 fold | 0.9 fold | 1.1 fold | 0.8 fold | 0.8 fold | 0.9 fold | > 10 µM | > 10 µM | 1.1 fold | 1.0 fold | 1.4 fold | 0.8 fold | 1.0 fold | 1.5 fold | 1.7 fold | 1.8 fold | 2.4 fold | induction potential on the CYP mRNA tested [1]: no apparent induction potential; IC50 (CYP2C19): > 10 µM; IC50 (CYP1A2): > 10 µM; IC50 (CYP2B6): > 10 µM; inhibitory potential on the CYP isoforms [2]: no inhibitory potential; inhibition at 10 µM ([3]; at 10 μM): < 50%; toxicity to the cultured human hepatocytes [4]: did not show detectable toxicity; Fold change of mRNA expression level CYP1A2 (CYP1A2 mRNA; hepatocyte lot Hu1487, 3 μM): 1.0 fold; Fold change of mRNA expression level CYP1A2 (CYP1A2 mRNA; hepatocyte lot Hu1487, 10 μM): 1.0 fold; Fold change of mRNA expression level CYP1A2 (CYP1A2 mRNA; hepatocyte lot Hu1487, 30 μM): 1.4 fold; Fold change of mRNA expression level CYP1A2 (CYP1A2 mRNA; hepatocyte lot Hu8114, 3 μM): 1.1 fold; Fold change of mRNA expression level CYP1A2 (CYP1A2 mRNA; hepatocyte lot Hu8114, 10 μM): 1.0 fold; Fold change of mRNA expression level CYP1A2 (CYP1A2 mRNA; hepatocyte lot Hu8114, 30 μM): 1.1 fold; Fold change of mRNA expression level CYP1A2 (CYP1A2 mRNA; hepatocyte lot Hu8123, 3 μM): 1.1 fold; Fold change of mRNA expression level CYP1A2 (CYP1A2 mRNA; hepatocyte lot Hu8123, 10 μM): 1.2 fold; Fold change of mRNA expression level CYP1A2 (CYP1A2 mRNA; hepatocyte lot Hu8123, 30 μM): 1.3 fold; IC50 (CYP2C8): > 10 µM |
